Reference: patent US7186855B2, “Prodrugs of GABA analogs, compositions and uses thereof” (Xenoport, Inc., priority 2001, dated 2007)

Tests used:
[1] = Uptake of gabapentin following intracolonic administration of gabapentin or gabapentin prodrugs in rats; type: in vivo; conditions: dose equivalent to 25 mg gabapentin per kg
Experimental: Sustained release oral dosage forms, which release drug slowly over periods of 6–24 hours, generally release a significant proportion of the dose within the colon. […] This experiment was conducted to assess the suitability of gabapentin prodrugs for use in an oral sustained release dosage form.
Rats were obtained commercially and were pre-cannulated in the both the ascending colon and the jugular vein. Animals were conscious at the time of the experiment. All animals were fasted overnight and until 4 hours post-dosing. Gabapentin or gabapentin prodrugs (59), (63), (69), (72), (77), (79), (85), (117) and (126) were administered as a solution (in water or PEG 400) directly into the colon via the cannula at a dose equivalent to 25 mg of gabapentin per kg. Blood samples (0.5 mL) were obtained from the jugular cannula at intervals over 8 hours and were quenched immediately by addition of acetonitrile/methanol to prevent further conversion of the prodrug. Blood samples were analyzed as described below.
• 1. In blank 1.5 mL eppendorf tubes, 300 μL of 50/50 acetonitrile/methanol and 20 μL of p-chlorophenylalanine was added as an internal standard. • 2. […]
An API 2000 LC/MS/MS spectrometer equipped with Shidmadzu 10DVp binary pumps and a CTC HTS-PAL autosampler were used in the analysis. […] The peaks were integrated using Analyst 1.1 quantitation software.

mouse = conditions: cited from earlier work

CC(OC(=O)NCC1(CC(=O)O)CCCCC1)OC(=O)C(C)C (stereo not drawn) [(77), 1-{[(α-Isobutanoyloxyethoxy)carbonyl]aminomethyl}-1-Cyclohexane Acetic Acid]
gabapentin AUC relative to colonic administration of gabapentin itself [1]: greater than 10 fold | maximum plasma concentration of gabapentin (Cmax) relative to colonic administration of gabapentin itself [1]: greater than 10 fold

NCC1(CC(=O)O)CCCCC1 [gabapentin]
toxicity (LD50, mouse) (mouse): more than 8000 mg/kg

O=C1CC2(CCCCC2)CN1 [lactam (5)]
toxicity (LD50, mouse) (mouse): 300 mg/kg
